Source: patent publication US9393221B2, “Methods and compounds for reducing intracellular lipid storage” (THE GENERAL HOSPITAL CORPORATION, priority 2011, dated 2016)
Where a name gives a salt, the structure may show the parent alone.

test system: ATGL-KO iPSCs; assay: High throughput iPSC chemical screening, Oil Red O (ORO) lipid accumulation; assay type: cell-based, mouse; conditions: not given; for Z-score: test concentration or dose not given here

| Molecule | Z-score |
| --- | --- |
| Cytisine (−) | 1.049 |

same assay, conditions: glycolytic switch compounds

| Molecule | Rank in normalized ORO score from screen |
| --- | --- |
| Merbromin | 743 |

same assay, conditions: normalized ORO level vs DMSO-treated cells; compound present during 7 days differentiation, 96-well; negative = decrease in lipid accumulation

| Molecule | Z-score |
| --- | --- |
| CN(C)C/C=C(/c1ccc(Br)cc1)c1cccnc1 [Zimelidine dihydrochloride monohydrate] | −0.7577 |
| Cc1cc(CC(=O)O)n(C)c1C(=O)c1ccc(Cl)cc1 [Zomepirac sodium salt] | 0.8794 |
| OCCN1CCN(CC/C=C2/c3ccccc3Sc3ccc(Cl)cc32)CC1 [Zuclopenthixol hydrochloride] | −1.8038 |
| CC1=C2[C@H]3OC(=O)[C@@H](C)[C@@H]3CC[C@@]2(C)C=CC1=O [alpha-Santonin] | −0.8908 |
| CC[N+]1(C)[C@@H]2CC[C@H]1CC(OC(=O)[C@@H]1CC[C@@](C(=O)OC3C[C@H]4CC[C@@H](C3)[N+]4(C)CC)(c3ccccc3)c3ccccc31)C2.[Cl-].[Cl-] (stereo partly drawn) [beta-Belladonnine dichloroethylate] | −0.7978 |
| (S)-(−)-Atenolol | 0.7787 |
| (S)-propranolol hydrochloride | 0.368 |
| (−)-MK 801 hydrogen maleate | −0.2074 |
| (−)-Quinpirole hydrochloride | 1.311 |
| Alverine citrate salt | −0.9516 |
| Antimycin A | 30.555 |
| Avermectin B1 | −0.9704 |
| Beta-Escin | −1.7261 |
| Bromocryptine mesylate | −0.775 |
| Butirosin disulfate salt | 0.2121 |
| Carbinoxamine maleate salt | 0.218 |
| Clofilium tosylate | 13.6063 |
| Colistin sulfate | −0.5041 |
| Cotinine (−) | 0.644 |
| Cyanocobalamin | −1.3236 |
| Deptropine citrate | −0.0889 |
| Dihydroergotamine tartrate | −0.7032 |
| Dihydroergotoxine mesylate | 1.217 |
| Eburnamonine (−) | −1.0688 |
| Foliosidine | −0.7349 |
| Guanadrel sulfate | −0.4661 |

| Molecule | Z-score |
| --- | --- |
| Helveticoside | −0.1112 |
| Ifenprodil tartrate | 0.8399 |
| Iobenguane sulfate | −0.2715 |
| Iproniazide phosphate | −0.4106 |
| Isoetharine mesylate salt | −0.7902 |
| Ketanserin tartrate hydrate | 1.256 |
| Lycorine hydrochloride | 21.7885 |
| Mephentermine hemisulfate | 0.04889 |
| Merbromin | 0.2933 |
| Pizotifen malate | −1.2994 |
| Pridinol methanesulfonate salt | 1.97 |
| Pyrantel tartrate | −0.1933 |
| Retrorsine | 0.08676 |
| S(−)Eticlopride hydrochloride | −0.7335 |
| Solanine alpha | −1.7798 |
| Spiramycin | −1.0612 |
| Terbutaline hemisulfate | 2.278 |
| Thioproperazine dimesylate | −0.4051 |
| Timolol maleate salt | 0.4592 |
| Trimeprazine tartrate | −1.418 |
| Trimipramine maleate salt | −0.138 |
| Tropicamide | 0.5083 |
| Tyloxapol | 0.9571 |
| Verteporfin | −0.2331 |
| Viomycin sulfate | 1.64 |
| Vitamin K2 | 0.6129 |
